{"source": "patent US20200237764A1", "about": "“DRUG COMBINATIONS FOR TARGETING MULTIPLE MUTATIONS IN CANCER” (CureMatch, Inc., priority 2017, published 2020)", "test_system": "CAPAN2 cells", "experiment": "WST-1 colorimetric cell viability assay in CAPAN2 cells", "format": "cell-based, human", "details": "for IC20 / IC50: Homo sapiens, Capan-2, CAPAN2 cell survival; for cell death: at 300 nM, 48 hrs", "protocol": "The human pancreatic cancer cell line CAPAN2, was purchased from the American Type Culture Collection (ATCC; Manassas, Va.). Cells were grown in McCoy's Modified 5A media supplemented with 10% FCS, 1× penicillin/streptomycin and 1× amphotericin. For testing, cells were released from the dishes by treatment with PBS (without calcium) for ˜30 min followed by 0.25% trypsin-EDTA for 5 minutes at 37 C. Cells were collected in a 15 ml centrifuge tube and spun down in a clinical centrifuge for 5 min and then re-suspended in 1 ml of fresh media and the cells were counted using a hemocytometer. Cells (1×10^3-5×10^3) were then seeded into 96-well plates in 100 μL of media and the cells were incubated for 48 hours. After 48 hours, the media was replaced and the cells were re-incubated for another 24 hours prior to treatment with the drugs.\nStock drug solutions were prepared in complete media from master stock solutions prepared in DMSO according to the manufacturer's instructions. Using these stock solutions, 1:1, 2:1, 5:1, and 10:1 volume-volume (v/v) mixtures of regorafenib and trametinib were prepared. These mixtures were then two-fold serially diluted to generate a range of 20 concentrations in each case. The cells were incubated in drug mixtures for 48-72 hours before cell viability assay/assessment.\nCell viability was determined using a WST-1 colorimetric cell proliferation assay (Roche), according to manufacturer's instructions. The stable tetrazolium salt WST-1 is cleaved to a soluble formazan by a complex cellular mechanism that occurs primarily at the cell surface. This reduction is largely dependent on the glycolytic production of NAD(P)H in viable cells. Therefore, the amount of formazan dye formed, and estimated using a spectrophotometer (BIO-TEK 340, BIOTEK) directly correlates to the number of metabolically active cells in the culture. All testing points were done at least in triplicate.", "key": {"[1]": {"details": "monotherapy, two-fold serial dilution 2 nM to 1 mM, 48-72 hours"}}, "data": [{"smiles": "Nc1ccn([C@@H]2O[C@H](CO)[C@@H](O)C2(F)F)c(=O)n1", "note": "[gemcitabine]", "values": [{"measurement": "effect on CAPAN2 cell survival (in words)", "setting": "CAPAN2 cells, 48-72 hours", "result": "little, if any, effect on cell survival"}, {"measurement": "maximum decrease in cell viability", "setting": "CAPAN2 cells, concentration of 1 mM, 48-72 hours", "result": "−30", "unit": "%"}, {"measurement": "IC20", "setting": "[1]", "result": 111, "unit": "µM"}]}, {"smiles": "CNC(=O)c1cc(Oc2ccc(NC(=O)Nc3ccc(Cl)c(C(F)(F)F)c3)c(F)c2)ccn1", "note": "[regorafenib]", "values": [{"measurement": "effect on CAPAN2 cell survival (in words)", "setting": "CAPAN2 cells, 48-72 hours", "result": "significant reduction in cell survival"}, {"measurement": "cell death", "setting": "CAPAN2 cells", "result": "−2", "unit": "%"}, {"measurement": "IC50", "setting": "2 nM to 1 mM", "result": 7.1, "unit": "µM"}, {"measurement": "IC20", "setting": "[1]", "result": 2, "unit": "µM"}]}, {"smiles": "CC(=O)Nc1cccc(-n2c(=O)n(C3CC3)c(=O)c3c(Nc4ccc(I)cc4F)n(C)c(=O)c(C)c32)c1", "note": "[trametinib]", "values": [{"measurement": "cell death", "setting": "CAPAN2 cells", "result": "−10", "unit": "%"}, {"measurement": "IC50", "setting": "100 μM to 0.2 nM, 48-72 hours", "result": 0.028, "unit": "µM"}, {"measurement": "IC20", "setting": "48-72 hours", "result": 0.004, "unit": "µM"}]}]}
